| SMILES | melting point |
| --- | --- |
| CC(C)C1(Cl)Cc2cc(OCC(=O)O)cc(Cl)c2C1=O (stereo unspecified) | 142 °C |
| CS(=O)(=O)c1ccc(-c2cc(C(F)F)nn2-c2ccc(S(N)(=O)=O)cc2)cc1 | 209 to 210 °C |
| CN(C)C=Nc1c(Cl)cc(N=Cc2cccc(C(F)(F)F)c2)cc1Cl | 62 to 64 °C |
| O=C(Nc1ccc(Cl)c(Cl)c1)O[C@H]1COC(c2ccccc2)=N[C@@H]1c1ccccc1 (racemic) | 184 °C |
| CC(C)C(S)C(=O)NCC(=O)O (stereo unspecified) | 118 to 119 °C |
| CC1(C(=O)N2C[C@H](S(=O)(=O)c3ccc(OCC(F)(F)F)cc3C(F)(F)F)C[C@H]2C(=O)NC2(C#N)CC2)CC1 | 126 to 127 °C |
| Cn1cc(C(=O)C(C)(C)C)c(=O)c(-c2cccc(C(F)(F)F)c2)c1 | 86 to 88 °C |
| CCOP(=O)(OCC)C(C)CNC(=O)CCl (stereo unspecified) | 93 to 95 °C |
| Cc1ccc(Cl)cc1-c1cc(F)cc2c1O[C@@H](CN)C2 | 148 to 150 °C |
| O=C(OCc1ccccc1)c1ccc(CCCOCCCCCCNCC(O)c2ccc(O)c(CO)c2)cc1 (stereo unspecified) | 51 to 52 °C |
| CC(O)(CNC(=S)Nc1ccc(Br)cc1)C(=O)Nc1ccc([N+](=O)[O-])c(C(F)(F)F)c1 (stereo unspecified) | 192 to 195 °C |
| Cc1c(C(=O)O)cnn1-c1cc(C(F)(F)F)ccc1Cl | 124 to 125 °C |
| ClCc1ccc(OCc2coc(/C=C/c3ccccc3)n2)cc1 | 116 to 117 °C |
| Cc1cc(Nc2cncc(Nc3cccc(NC(=O)c4ccccc4)c3)n2)n[nH]1 | 243 to 244 °C |
| Brc1cn2c(Br)cnc2c(NCc2ccco2)n1 | 143 °C |
| C(=C\c1cccs1)/c1nc(COc2ccc(CCCn3ccnc3)cc2)co1 | 131 to 132 °C |
| O=C(NCCO)/C(=C/c1ccc(OC(F)(F)F)cc1)NC(=O)c1ccc(Oc2ccc(C(F)(F)F)cc2)cc1 | 84 to 86 °C |
| Cc1cn(C2CCN(c3c(F)c(C)c4c(=O)c(C(=O)O)cn(C5CC5)c4c3F)C2)nn1 (stereo unspecified) | 232 to 234 °C |
| CC(=O)OCC(=O)C1(OC(C)=O)CCC2C3C=C(C)C4=CC(=O)CCC4(C)C3CCC21C (stereo unspecified) | 213 to 215 °C |
| Cc1ccccc1N(C(=O)Nc1cc(C)c(S(=O)(=O)C[N+](=O)[O-])c(C)c1)C(C)C | 177 to 178 °C |
| Cc1ccc(-c2nc3c(N[C@H]4[C@@H](C(N)=O)[C@@H]5C=C[C@H]4C5)c(Br)cnc3[nH]2)o1 | 200 to 201 °C |
| CC(=O)NC1=NN(c2ccc(Cl)cc2)C(C)C1 (stereo unspecified) | 167 to 169 °C |

| SMILES | melting point |
| --- | --- |
| CCCCCCCCCCCCCCCCc1cc(-c2ccccn2)nc(-c2ccccn2)c1 | 97.5 to 99 °C |
| CCCCCCCCCCCCCCCCOC(=O)c1cc(C(=O)OCCCCCCCCCCCCCCCC)cc(S(=O)O)c1 | 63 to 65 °C |
| COC1=CCC(Br)(OC)C=C1C(=O)C(Br)CCC1CCCCC1 (stereo unspecified) | 96 to 104 °C |
| COc1ccc2oc(-c3nc(C(C)(C)C)cs3)cc2c1 | 80 to 81 °C |
| CSc1cc(C(C)C)c(NC(=O)C2c3ccccc3COc3ccc(C)cc32)c(C(C)C)c1 (stereo unspecified) | 126 °C |
| OCC1CNc2ncccc2O1 (stereo unspecified) | 123 to 124 °C |
| CCCCCCCCP(=O)(O)CCCCCCCC | 84 to 86 °C |
| CCOC(=O)C(=O)Nc1sc(C(=O)OCC)c(CC)c1[N+](=O)[O-] | 70 to 73 °C |
| CC(C)C[C@H](NC(=O)[C@H](Cc1c[nH]cn1)NC(=O)[C@H](Cc1cccc2ccccc12)NC(=O)OCc1ccccc1)[C@H](O)CO | 176 to 178 °C |
| CCCCc1ccc(CC(N)C(=O)O)cc1 (stereo unspecified) | 218 to 223 °C |
| CCCC1=C(C(=O)OCC)C(c2ccncc2)c2c[nH]nc2N1 (stereo unspecified) | 266 °C |
| CCn1c(=O)n(CCCCC(C)(C)O)c(=O)c2[nH]cnc21 | 112 to 114 °C |
| NS(=O)(=O)c1ccc(-c2noc(-c3cnn4c(C(F)(F)F)cc(-c5ccc(C(F)(F)F)cc5)nc34)n2)cc1 | 275 °C |
| COc1nc(OC)c(C=CC(C)=O)c(OC)n1 | 98 to 99 °C |
| Cc1cc(C)c(C(=O)c2ccc(Cl)cc2)c(Cl)c1 | 41 to 52 °C |
| COc1ccc(-c2c(C)c(NC(=O)CC(C)(C)C)c(C)c3c2OCC3c2ccc(C(C)C)cc2)cn1 (stereo unspecified) | 120 to 123 °C |
| N#CCCC(=O)c1cccc(Cl)c1 | 49 to 51 °C |
| COc1cc(OC)c2c(=O)[nH]c(-c3cc(C)c(OCCN4CC(NC(C)=O)C4)c(C)c3)nc2c1 | 112 to 114 °C |
| COc1ccc(-c2ccc(CC3CC=CC3)cc2)cc1 | 75 to 77 °C |
| CCCc1nnc(/C=C/c2cn(Cc3ccccc3)nc2OCc2ccc(OCc3nc(-c4ccco4)oc3C)c(OC)c2)o1 | 146 to 147 °C |
| CCCc1c(OCCCOc2ccc3c(c2CCC)OC(C)(CCC(N)=O)CC3=O)ccc(C(C)=O)c1O (stereo unspecified) | 77 to 79 °C |
| c1cc2cc(-c3cn([C@H]4CN5CCC4CC5)nn3)ccc2o1 | 178 °C |

| SMILES | melting point |
| --- | --- |
| CC1=C(C(=O)NCc2ccncc2)SCN1n1ccc(O)cc1=O | 275 to 278 °C |
| CCN1CCN(Cc2ccc(-c3cc4c(NCc5cccc(Cl)c5)ncnc4[nH]3)cc2)CC1 | 241 to 243 °C |
| O=C(O)CCC(=O)c1ccc(NC(=O)CCCl)cc1 | 181 to 182 °C |
| Cc1cccc(C(=O)C2CC2)c1N | 64 °C |
| N#Cc1ccc(OCc2ccccc2)cc1OCc1ccccc1 | 100 °C |
| CC1C(c2ccccc2)NC(=S)N1O (stereo unspecified) | 202 °C |
| Cc1cc(C)cc(NC(=O)Cc2ccc(OC3(C(=O)O)CCCC3C)cc2)c1 (stereo unspecified) | 184 to 186 °C |
| Cn1cnc2cc(NC(=O)c3cc4cc(F)cnc4n3Cc3cccc(F)c3)ccc21 | 266 to 268 °C |
| COC(=O)Nc1nc(C)cc(OC)n1 | 89 to 92.5 °C |
| N#Cc1ccc(Nn2cnnc2)cc1-c1ccco1 | 217 to 218 °C |
| COP(=O)(OC)C(O)c1ccccc1 (stereo unspecified) | 85 to 86 °C |
| NS(=O)(=O)c1ccc(-c2cnn(Cc3ccccc3)c(=O)c2-c2ccc(F)cc2)cc1 | 185 to 189 °C |
| CS(=O)(=O)n1cc(F)c(=O)[nH]c1=O | 223 to 224 °C |
| CC(C(=O)O)c1ccc2c(c1)Cc1cc(O)ccc1-2 (stereo unspecified) | 205 to 207 °C |
| O=Cc1cc(Cl)cc2c1OC(C(F)(F)F)C(C(=O)O)=C2 (stereo unspecified) | 243 to 252 °C |
| COc1ccc(-c2csc(Nc3cccc(C)n3)n2)cc1OC | 264 to 266 °C |
| CC(C)(C)c1cc(C(=O)OCCC(=O)Oc2ccc(Cl)c(N)c2)cc(C(C)(C)C)c1O | 122 to 124 °C |
| c1ccc(Cn2cnc3cncnc32)cc1 | 99 to 100 °C |
| Cc1ccc(C)c(N2C(=O)CON(C)C2=S)c1 | 104 to 106 °C |
| N#CC(=NOS(=O)(=O)c1ccc(C(=O)O)cc1)c1ccccc1 | 250 to 251 °C |
| COc1ccc2c(C3=CCN(C[C@H](O)COc4cccc5[nH]ccc45)CC3)c[nH]c2c1 | 155 to 160 °C |

Now from value to compound:

| melting point | SMILES |
| --- | --- |
| 35 to 38 °C | OC1(Cc2ccccc2F)CCCCCC1 |
| 234 to 236 °C | CCc1c2c(nn1CC)c(N)nc1ccccc12 |
| 56 to 58 °C | O[C@@H](CNCc1ccccc1)C1CCCCC1 |
| 176 to 177 °C | O=C(O)c1ccccc1C(=O)c1ccc(Cl)c(S(=O)(=O)Cl)c1 |
| 111 to 112 °C | Cc1c(F)cccc1CC(=Cc1ccccc1)[N+](=O)[O-] |
| 64 to 67 °C | O=C(O)CCCCCc1nn(-c2ccc(F)cc2)c2c1CCC2 |
| 158 to 159 °C | COC(=O)c1cc2ccccc2n1-c1ccccn1 |
| 235 to 236 °C | COC(=O)c1ccc2[nH]cc(C(C)=O)c2c1 |
| 150 °C | CC(C)N=CN1c2ccccc2Cc2ccccc21 |
| 187 to 188 °C | Nc1c2c(nc3c(O)cccc13)CCC2 |
| 162 °C | Nc1nc(Cc2ccc(Br)cc2)cc(C2CCN(C(=O)c3ccc4c(c3)OCO4)CC2)n1 |
| 145 to 146 °C | O=C(C=Cc1c(-c2ccccc2)nn2ccccc12)N1CCCC[C@@H]1CCO |
| 165 to 167 °C | CC(=O)C(=Cc1ccccc1)C(C)=O |
| 91 to 93 °C | Cc1cc(-c2ccccc2)n2nc(SC(F)(F)F)nc2n1 |
| 184 to 186 °C | N#CCCn1nnc2cc3c(cc2c1=O)OC1CCCN1C3=O (stereo unspecified) |
| 101 to 103 °C | CC1(C)Oc2ccc(C#N)cc2C(Sc2ccccn2)C1O (stereo unspecified) |
| 111 to 113 °C | CN(C=O)CCC12CCCn3c1c(c1ccccc13)CCO2 (stereo unspecified) |
| 224 to 230 °C | O=C1c2ccccc2S(=O)(=O)N1C1CCN(CC2COc3ccccc3O2)CC1 (stereo unspecified) |

| melting point | SMILES |
| --- | --- |
| 180 to 185 °C | C[C@@H](NC(=O)c1c[nH]c2ncc(-c3nccc4ccccc34)nc12)C(=O)N1CC(C#N)C1 |
| 124 to 126 °C | CCC1c2cccn2-c2ccccc2N1S(=O)(=O)c1ccc(OC)c(C)c1 (stereo unspecified) |
| 138 to 139 °C | CC(C)(O)CCNC(=O)c1nn(C2CCCCO2)cc1NC(=O)c1ccccn1 (stereo unspecified) |
| 96 to 102 °C | CCOC(=O)c1c[nH]c(C2CCN(CCC(CN(C)C(=O)c3ccccc3)c3ccc(Cl)c(Cl)c3)CC2)n1 (stereo unspecified) |
| 142 °C | COC(=O)C1Oc2ccc(Cl)cc2C(c2ccccc2)(C2CCCCC2)O1 (stereo unspecified) |
| 204 to 206 °C | O=C1CCC(N2Cc3c(OCc4ccc(CN5CCC(O)CC5)cc4)cccc3C2=O)C(=O)N1 (stereo unspecified) |
| 108 to 110 °C | O=C(C1CC1)N1CCCc2oc(-c3ccccc3)cc2C1 |
| 149 to 150 °C | CC1(C)COc2ccc(C[C@@H](NC(=O)c3cccc4c3C=CCCC4)[C@@H](O)c3cccc(Cl)c3)cc21 (racemic) |
| 85 to 88 °C | CCCCC(CC)COc1cc2c3c(cccc3c1Br)C(=O)c1ccccc1-2 (stereo unspecified) |
| 168 to 169 °C | COc1cccc(CNC(=O)c2nc3ccc(OCC(=O)c4ccccc4)cc3c(=O)[nH]2)c1 |
| 143 to 146 °C | O=C(CNc1ccccc1F)Nc1ccc(O)cc1 |
| 141 to 142 °C | CC(C)n1c2cc(Cl)ccc2c2oc(C(=O)Cl)cc21 |
| 114 to 118 °C | O=C1c2cccc(O)c2CN1C1CCN(CCC(c2ccccc2)c2ccccc2)CC1 |
| 131 to 132 °C | Cc1cc(-c2ccccc2)nn1CCN |
| 119 to 120 °C | COC[C@@H](C)n1cc(Cl)nc(N2CCc3cc(Br)cc(Br)c32)c1=O |
| 240 °C | Cc1ccc2c(c1)c1cc(-c3ccc(Cl)cc3Cl)c(=O)n(C)c1n2CCO |
| > 300 °C | CCOC1c2ccccc2-c2nccnc21 (stereo unspecified) |
| 149 to 150 °C | CC(=O)Nc1ccc(OC(C)(C)c2nc3ccccc3s2)cc1 |
